Earlier results on one compound are cited in patent US10596124B2, “Lipid nanoparticle compositions and methods as carriers of cannabinoids in standardized precision-metered dosage forms” (NanoSphere Health Sciences, LLC, priority 2015, dated 2020).

The conditions of this data set: intranasal.

Turning to `C=C(C)[C@@H]1CCC(C)=C[C@H]1c1c(O)cc(CCCCC)cc1O` [CBD, cannabidiol], the “time to absorption into the systemic circulation” value was no more than 10 min.
